Literature values in patent publication US20190231742A1, “NUTRITIONAL AGENTS USED TO PREVENT AND TREAT HYPERSENSITIVITY AND OTHER ALLERGIC-TYPE DISORDERS” (priority 2017, published 2019).

Tests used:
[1] = Alzheimer's disease patient; increasing quantities on successive days
[2] = taken by mouth; FIG. 3
[3] = oral administration of ~20 g; raised from ≤0.2 mM

Row | time of peak blood D-βOHB level after ingestion [1] | water solubility | rise in the blood level of D-βOHB and AcAc with increasing oral amount (mg/kg body weight) [2] | plasma D-βOHB level [3] | SMILES
1 | about 1 hour | somewhat water soluble | increases proportionately |  | CC(O)CCOC(=O)CC(C)O [KME, (R)-3-hydroybutyl (R)-3-hydroxybutyrate]
2 |  |  |  | 0.5 to 0.7 mM | CCCCCCCC(=O)OCC(COC(=O)CCCCCCC)OC(=O)CCCCCCC [tricaprylin]
